This is an account of results in PMC12195777, “Improved Bioavailability of Stilbenes from Cajanus cajan (L.) Millsp. Leaves Achieved by Hydroxypropyl-β-Cyclodextrin Inclusion: Preparation, Characterization and Pharmacokinetic Assessment” (Molecules, 2025).

Each structure is given as a SMILES string.

A short description of series [1]: In vivo pharmacokinetic study in rats after oral administration (UPLC-QqQ-MS/MS of plasma). Set-up: species or system SD rats. As to conditions: for AUC(0-inf) / AUC(0-t) / Cmax / Tmax / half-life: male, SD, rat, plasma, n = 6; for relative bioavailability / time at which peak plasma concentration (Cmax) was reached: oral; for relative bioavailability: from the inclusion complex, using CCMLE as a reference; for time at which peak plasma concentration (Cmax) was reached: post-administration (Figure 6). How it is done:
Healthy male SD rats weighing 200 ± 20 g were housed in a specific pathogen-free (SPF) facility under controlled conditions (24 ± 1 °C, 50 ± 10% relative humidity) with a 12 h light/dark cycle. The animals were free to access purified water and a standard laboratory diet for a 1-week acclimatization period. After acclimatization, the rats were randomly divided into three groups (n = 6 per group): the control group (con), CCMLE group and stilbene/HP-β-CD inclusion complex group. The CCMLE group received an oral dose of 232 mg/kg CCMLE, while the stilbene/HP-β-CD inclusion complex group received 2.1 g/kg of the inclusion complex by oral gavage, with both containing the same amount of stilbenes. All animal experiments were performed in accordance with the National Institutes of Health Guide for the Care and Use of Laboratory Animals (NIH Publication No. 85-23, revised in 1996). The study protocol was approved by the Animal Care and Use Committee of Zhejiang University of Technology (approval number MGS20231227194).
Blood samples (approximately 300 μL) were collected via the retro-orbital venous plexus before dosing and at the following post-dose times of 5 min, 15 min, 30 min, 1 h, 1.5 h, 2 h, 4 h, 6 h, 8 h, 12 h and 24 h. Each sample was placed in an EDTA anticoagulation tube to prevent coagulation. The tubes were then centrifuged at 3500 rpm for 10 min. The upper layer of supernatant (plasma) was carefully collected and stored at −80 °C until further analysis.
The plasma samples stored at −80 °C were thawed at room temperature prior to processing. For each analysis, 100 μL of the plasma sample was accurately transferred into a centrifuge tube, followed by the addition of 40 μL of a chloramphenicol (CHL) solution (1 mg/mL) used as an internal standard (IS) and 260 μL methanol. The mixture was vortexed for 3 min to ensure thorough homogenisation and then centrifuged at 13,000 rpm for 10 min at 4 °C to precipitate proteins and other insoluble components. For analysis, 10 μL of the supernatant was injected into a ultra-high-performance liquid chromatography–triple-quadrupole tandem mass spectrometry (UPLC-QqQ-MS/MS) system.
The bioavailabilities of three stilbenes (LLC, CSA and MPA) in CCMLE and the stilbene/HP-β-CD inclusion complex were analyzed using a Waters Xevo TQ-S micro-mass spectrometry system (Waters, Milford, MA, USA) coupled to a Waters H-Class UPLC system. Chromatographic separation was performed on a Waters H-Class UPLC system equipped with a Welch Ultimate® UHPLC LP-C18 column (Waters, Milford, MA, USA, 2.1 × 50 mm, 1.8 μm) at 30 °C. The injection volume was 10 μL. The mobile phase consisted of ultrapure water (A) and acetonitrile (B) with a flow rate of 0.3 mL/min and an elution gradient programme as follows: 0–0.2 min, 90% A; 0.2–1.5 min, 90–5% A; 1.5–3.5 min, 5% A; and 3.5–5 min, 5–90% A.
Mass spectrometric analysis was performed on a Waters Xevo TQ-S micro system using electrospray ionization in the negative mode (ESI^−). The capillary voltage was 2.71 kV, and the ion source temperature was 150 °C. Nitrogen was used as the desolventizing gas and the cone pore gas, and argon was used as the collision gas. Data acquisition was performed in the multiple-reaction-monitoring (MRM) mode for all analytes.
The relative bioavailability of CSA, LLC and MPA in the stilbene/HP-β-CD inclusion complex was calculated using Equation (8), with CCMLE used as a reference:(8) Frel=AUCstilbenes/HP−β−CD/AUCCCMLE·DCCMLE/Dstilbenes/HP−β−CD·100% where AUCstilbenes/HP-β-CD and AUCCCMLE represent the areas under the blood concentration–time curve, and Dstilbenes/HP-β-CD and DCCMLE represent the orally administered dose (mg/kg).
DAS 2.0 software was used to calculate the pharmacokinetic parameters, including the area under the plasma concentration–time curve (AUC), maximum plasma concentration (Cmax), time to reach Cmax (tmax) and elimination half-life (t1/2), using a non-compartmental model. […]

Series [2] is described as follows: Tissue distribution study in rats after oral administration. The class given is in vivo. As to conditions: oral CCMLE or inclusion complex, heart, liver, spleen, lungs, kidneys, brain. Here is the method: The tissue distribution study followed the same experimental grouping and dosing protocols described in Section 3.12. Thirty minutes after dosing, the rats were euthanized and their tissues (including their heart, liver, spleen, lungs, kidneys and brain) were immediately collected. Each tissue was rinsed with a 0.9% NaCl solution, gently dried with filter paper, weighed and stored at −80 °C until analysis.
For sample preparation, 0.2 g of each tissue was homogenized in 0.5 mL of a 0.9% NaCl solution using a high-throughput tissue grinder (Jingxin, Shanghai, China). Next, 300 μL of the tissue homogenate was mixed with 50 μL of a CHL solution and 850 μL of methanol, vortexed for 3 min and centrifuged at 13,000 rpm for 10 min at 4 °C. Then 10 μL of the supernatant was injected into the UPLC-QqQ-MS/MS system for analysis.

The conditions of series [3]: quoted without reference; cited from earlier work.
The mark [4] stands for this setting: oral stilbene/HP-β-CD inclusion complex 2.1 g/kg.

With `COc1cc(/C=C/c2ccccc2)c(C(=O)O)c(O)c1CC=C(C)C` [CSA, cajaninstilbene acid], in series [1] (oral CCMLE 232 mg/kg), the AUC(0-inf) (commonly total exposure, with the tail of the curve extrapolated) is 170 ± 66 ng·h/mL; the area under the curve AUC(0-t) – broadly, the area under the concentration-time curve up to a stated or last time point – was 120 ± 41 ng·h/mL; the peak level (Cmax) was 48 ng/mL; the Tmax (usually the time from dosing to the highest level) turned out to be 18 ± 6 min. The half-life (in general, the time in which the quantity being followed falls by half) in series [1] (oral CCMLE 232 mg/kg) was 660 ± 336 min. Moreover, in series [1] (setting [4]), the AUC(0-inf) is 470 ± 160 ng·h/mL; the AUC(0-t) was 240 ± 82 ng·h/mL; the Cmax (as a rule, the highest concentration seen after dosing) is 140 ± 60 ng/mL; the Tmax worked out at 18 ± 6 min. This compound also gave a half-life in series [1] (setting [4]) of 780 ± 594 min. Besides, in series [1], the relative bioavailability is 198% and the “time at which peak plasma concentration (Cmax) was reached” value is given as 15 min. The tissue-specific accumulation result in series [2] is “predominately concentrated in the liver”.

Regarding `COc1cc(O)cc(/C=C/c2ccccc2)c1CC=C(C)C` [LLC, longistyle C], in series [1] (oral CCMLE 232 mg/kg), the AUC(0-inf) worked out at 10 ± 9.3 ng·h/mL, the AUC(0-t) turned out to be 5.8 ± 2.9 ng·h/mL, the Cmax stood at 0.7 ± 0.5 ng/mL and the Tmax came out at 18 ± 6 min. The compound also gave a half-life in series [1] (oral CCMLE 232 mg/kg) of 840 ± 522 min. Further, in series [1] (setting [4]), the AUC(0-inf) turned out to be 12 ± 6.7 ng·h/mL, the AUC(0-t) came to 10 ± 6.7 ng·h/mL, the Cmax was determined as 4.5 ± 2 ng/mL and the Tmax worked out at 30 min. Besides, the half-life in series [1] (setting [4]) was 360 min. In addition, in series [1], the relative bioavailability was 177%. Also, in series [2], the tissue-specific accumulation result is “higher concentrations in the heart and lungs”.

In the case of `COc1cc(O)c(C(=O)O)c(/C=C/c2ccccc2)c1` [MPA, 4-O-methylpinosylvic acid], in series [1] (oral CCMLE 232 mg/kg), the AUC(0-inf) was 580 ± 170 ng·h/mL, the AUC(0-t) stood at 560 ± 160 ng·h/mL, the Cmax came out at 230 ± 60 ng/mL and the Tmax was 24 ± 18 min. In addition, the half-life in series [1] (oral CCMLE 232 mg/kg) was 330 ± 102 min. In addition, in series [1] (setting [4]), the area under the curve AUC(0-inf) came out at 803 ± 140 ng·h/mL, the AUC(0-t) amounted to 740 ± 100 ng·h/mL, the peak level (Cmax) was 440 ± 130 ng/mL and the Tmax amounted to 18 ± 6 min. Besides, the half-life in series [1] (setting [4]) was 540 ± 246 min. Also, in series [1], the relative bioavailability came to 131% and the “time at which peak plasma concentration (Cmax) was reached” value is given as 15 min. For the same compound, the tissue-specific accumulation result in series [2] was “relatively higher levels in the liver, lungs and kidneys”.

On to `Oc1ccc(/C=C/c2cc(O)cc(O)c2)cc1` [resveratrol], for which the “pKa of phenolic hydroxyl groups” value in series [3] is reported as 9.5–10.
